SMILES strings stand for the structures. Read-outs that look alike come from different tables or passages of the source.

Here are results for 3 molecules from paper PMC12278462, “Site-selective arylations of nature-inspired flavonoids or steroidal phenols via C—H or O—H activation” (Journal of Enzyme Inhibition and Medicinal Chemistry, 2025).

In one test the test system is MCF-7. Nature of the test: MTT antiproliferative assay, MCF-7. Format: cell-based, human. The note with it: Homo sapiens. In general terms: Formazan colour is commonly taken as a measure of viable cells.
In test [1] the test system is MDA-MB-231. Nature of the test: MTT antiproliferative assay, MDA-MB-231. Format: cell-based, human. Particulars: Homo sapiens.
The test system of another test is HeLa. Put plainly: MTT antiproliferative assay, HeLa. It counts as cell-based, human. The note with it: Homo sapiens, HeLa, 72 h.
The subject of the next test is SiHa. Nature of the test: MTT antiproliferative assay, SiHa. It counts as cell-based, human. Particulars: Homo sapiens, SiHa, 72 h.
The test system of a further test is C33A. Put plainly: MTT antiproliferative assay, C33A. Format: cell-based, human. The note with it: Homo sapiens, C-33-A, 72 h.
The subject of test [2] is NIH/3T3 mouse fibroblast cell line. Put plainly: MTT assay, tumour selectivity on non-cancerous fibroblasts. It counts as cell-based. The note with it: Mus musculus.
For test [3], the system named is MDA-MB-231. Also noted: method as in PMID 21912610, PMID 28436164. The note with it: cited from earlier work.
In the next test the test system is MCF-7dox. Set-up: method as in PMID 21912610, PMID 28436164. The note with it: MCF-7 adapted to doxorubicin; cited from earlier work.

The inhibition is the share of the control response that was lost under treatment. A low value points to a response near the control. Turning to `CCCCOC1(c2cc(=O)c3c(O)cc(O)cc3o2)C=CC(=O)C=C1` [compound 10, 1′-O-butyl protoapigenone, reference compound], the inhibition at 10 µM was determined as 87.7% in the test on MCF-7 (MCF7, 10 µM, 72 h); 91.7% in the test on MDA-MB-231 [1] (MDA-MB-231, 10 µM, 72 h); 95.7% in the test on HeLa (10 µM); 92.2% in the test on SiHa (10 µM); 98% in the test on C33A (10 µM); 95.5% in test [2] (NIH3T3, 10 µM, 72 h). The inhibition at 30 µM turned out to be 93.3% in the test on MCF-7 (MCF7, 30 µM, 72 h); 92.8% in the test with MDA-MB-231 [1] (MDA-MB-231, 30 µM, 72 h); 96.2% with HeLa (30 µM); 96.3% in the test on SiHa (30 µM); 98.5% with C33A (30 µM); 99.1% in test [2] (NIH3T3, 30 µM, 72 h). In addition, the IC50 with MCF-7 (MCF7, 72 h, read-out: calculated IC50 MCF-7) was 3.03 µM; in the test with MDA-MB-231 [1] (MDA-MB-231, 72 h, read-out: calculated IC50 MDA-MB-231) it was 1060 nM; with HeLa (read-out: calculated IC50 HeLa), 1430 nM; in the test with SiHa (read-out: calculated IC50 SiHa), 1600 nM; in the test on C33A (read-out: calculated IC50 C33A), 970 nM; in test [2] (NIH3T3, 72 h, read-out: calculated IC50 NIH/3T3) it was 2270 nM. Besides, the IC50 in the test on MDA-MB-231 [3] is 620 nM.

Turning to `O=C1C=CC(O)(c2cc(=O)c3c(O)cc(O)cc3o2)C=C1` [compound 9, Protoapigenone], the IC50 with MDA-MB-231 [3] was 1350 nM.

For `O=C1C=CC(O)(c2cc(=O)c3cc(-c4ccccc4)ccc3o2)C=C1` [compound 11], the IC50 with MCF-7dox is 1230 nM.
